Data published in PMC11154958, “Mechanism of Nitrone Formation by a Flavin-Dependent Monooxygenase” (Biochemistry, 2024).
Values joined by “and” are separate entries in the source; they are usually repeats but may differ in a detail not shown here. Equal values may be shown once. Read-outs that look alike come from different tables or passages of the source.

Key:
[1] = tested on: human breast and leukemia cancer cell lines; design: method as in ref 18−20; settings: ref 18−20; cited from earlier work
[2] = design: method as in ref 18−20; settings: ref 18−20; cited from earlier work
OxaD [3] = molecular target: T1, OxaD (Penicillium oxalicum, UniProt A0A1B2TT15); settings: for kred2: slow phase
Protocol: To remove oxygen from the enzyme sample, OxaD (or D63A) was degassed along with buffer solutions as previously described. The stopped-flow was incubated with an anaerobic solution of 0.6 μM glucose oxidase and 100 mM D-glucose in 100 mM sodium acetate, pH 5.0, overnight to remove any oxygen.[27] […] For all stopped-flow experiments, the concentrations listed are after mixing in the instrument. […] Absorbance changes between 200 and 800 nm were recorded. The decrease in absorbance at 446 nm was fit to eq 2 to obtain the observed rate constant of the fast phase (k1) and of the slow phase (k2). A446 is the absorbance at 446 nm, A is the amplitude of the phase, t is time, and C is the final absorbance at 446 nm. […] Oxygenated buffer was prepared by bubbling 30 cc/min (pressure regulated by a flowmeter) of 100% oxygen into the OxaD activity buffer on an ice bath for 1 h while stirring. The resulting oxygen solution has a concentration of 1.2 mM.[27] Oxidation of reduced OxaD or D63A was investigated at various concentrations of oxygen (100–600 μM) at room temperature. To obtain lower oxygen concentrations, the saturated oxygen solution was diluted with anaerobic buffer. Absorbance changes at 200–800 nm were recorded. Absorbance changes at 365 nm were fit to eq 4 to account for the absorbance increase and decrease. In eq 4, A365 is the absorbance values at 365 nm, A1 and A2 are the changes in absorbance related to a single phase, k1 is the rate of absorbance increase, and k2 is the rate of absorbance decrease. Absorbance increases at 446 nm were fit to eq 5, where A446 is the absorbance values at 446 nm, kobs is the observed rate and AΔ is the change in absorbance. In both eq 4 and eq 5, A0 is the initial absorbance and t is time. The bimolecular rate constant was determined using a linear equation. All data fitting was carried out with KaleidaGraph. Spectral deconvolution was carried out using a three-step model that accounted for the reduced enzyme–substrate complex, the enzyme-intermediate complex, and the final oxidized enzyme.

OxaD D63A [4] = molecular target: T2, OxaD D63A (Penicillium oxalicum, UniProt A0A1B2TT15, D63A); test: Anaerobic stopped-flow, reductive-half reaction, D63A mutant; assay type: biochemical, Penicillium oxalicum F30; settings: for kred2: slow phase
OxaD D63A [5] = settings: D63A vs OxaD
Protocol: (§2) OxaD D63A (D63A from hereon) was expressed and purified using the same procedures as those described for OxaD.
(§3) All oxygen consumption assays were performed using an Oxygraph+ system from Hansatech Instruments (Norfolk, U.K.). Assays were performed in 25 mM HEPES/Na^+ buffer, pH 7.6, 50 mM NaCl, 1% DMSO (750 μL total volume). […] Equation 1 was used to determine the turnover number (kcat) and Michaelis–Menten constant (KM).

OxaD D63A [6] = test: Anaerobic stopped-flow, reductive-half reaction, D63A mutant; assay type: biochemical, Penicillium oxalicum F30; settings: D63A vs OxaD
oxidized OxaD = molecular target: T3, oxidized OxaD (Penicillium oxalicum, UniProt A0A1B2TT15); assay type: binding, Penicillium oxalicum F30; settings: 15 μM oxidized OxaD, roquefortine C 0–40 μM, pH 7.6; read-out: apparent KD
T3 sequence (A0A1B2TT15 1-467): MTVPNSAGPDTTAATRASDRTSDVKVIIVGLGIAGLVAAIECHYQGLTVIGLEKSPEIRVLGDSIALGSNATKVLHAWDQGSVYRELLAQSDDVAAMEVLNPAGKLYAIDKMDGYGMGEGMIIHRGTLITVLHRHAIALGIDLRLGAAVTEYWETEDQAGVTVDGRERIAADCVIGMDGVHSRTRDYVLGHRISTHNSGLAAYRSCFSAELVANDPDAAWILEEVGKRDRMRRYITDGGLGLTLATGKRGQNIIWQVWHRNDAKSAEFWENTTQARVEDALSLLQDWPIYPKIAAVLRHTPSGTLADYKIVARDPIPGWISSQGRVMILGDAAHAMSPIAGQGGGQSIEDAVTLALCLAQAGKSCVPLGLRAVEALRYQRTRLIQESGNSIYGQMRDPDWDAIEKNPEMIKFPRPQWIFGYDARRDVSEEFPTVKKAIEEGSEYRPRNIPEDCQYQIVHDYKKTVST
Protocol: (§1) These methods were adapted from Abdelwahab et al., 2016.[29] […] The instrument was blanked with each concentration of roquefortine C prior to recording the enzyme–substrate complex spectra. Each solution was 200 μL and contained 15 μM of enzyme, and various roquefortine C concentrations (0–40 μM). Prior to recording the spectra, the enzyme was incubated on ice for 5 min with the substrate and the spectra were measured immediately following the incubation.

oxidized D63A = molecular target: T4, oxidized D63A (Penicillium oxalicum, UniProt A0A1B2TT15, D63A); assay type: binding, Penicillium oxalicum F30; settings: 15 μM oxidized D63A, roquefortine C 0–40 μM, pH 7.6; read-out: apparent KD
T4 sequence (A0A1B2TT15 1-467 D63A): T3 sequence (A0A1B2TT15 1-467)
Protocol: as §1

OxaD [7] = molecular target: T1, OxaD; design: method as in PMID 27505044; settings: previous characterization; cited from earlier work
mice = tested on: mice; design: method as in ref 11−14; settings: mice exposed to roquefortine C; ref 11−14; cited from earlier work
OxaD D63A [8] = molecular target: T2, OxaD D63A
Protocol: as §2, §3

[9] = tested on: cytochrome P450s in the liver and kidneys; design: method as in PMID 16019806; settings: likely through binding to the heme in the active site; cited from earlier work
OxaD [10] = molecular target: T1, OxaD; test: Oxygen consumption assay, steady-state kinetics; settings: OxaD 1 μM; pH 7.6, 1% DMSO; roquefortine C fixed 100 μM for cosubstrates; NADPH fixed 500 μM when roquefortine C varied
Protocol: All oxygen consumption assays were performed using an Oxygraph+ system from Hansatech Instruments (Norfolk, U.K.). Assays were performed in 25 mM HEPES/Na^+ buffer, pH 7.6, 50 mM NaCl, 1% DMSO (750 μL total volume).

[11] = OxaD 10 μM, 10 μM roquefortine C, fast phase, apparent
[12] = OxaD 10 μM, 10 μM roquefortine C
[13] = D63A 10 μM, 10 μM roquefortine C, fast phase
[14] = D63A 10 μM, 10 μM roquefortine C

In the case of Melegranin, the anticancer properties [1] is given as “anticancer properties”.

For `C=CC(C)(C)[C@]12C=C(O)C(=O)N3/C(=C/c4cnc[nH]4)C(=O)N[C@@]31N(O)c1ccccc12` [glandicoline B], the antibacterial effects [2] is given as “antibacterial effects”.

With NADH the kred1 (OxaD [3]; [11]) was 43 ± 0.30 s^–1, the kred2 (OxaD [3]; [12]) was 0.34 ± 0.01 s^–1 and the “increase in KD(app) relative to NADPH” value (OxaD [3]; OxaD, NADH vs NADPH) was about 3 fold.

In the case of NADPH [Synthesized NADPH], the kred1 (OxaD [3]; [11]) is reported as 45 ± 0.70 s^–1, the kred2 (OxaD [3]; [12]) is reported as 0.32 ± 0.02 s^–1 and the kred1 (OxaD D63A [4]; [13]) is reported as 8.6 ± 0.14 s^–1. For the same compound, the kred2 (OxaD D63A [4]; [14]) was 0.20 ± 0.04 s^–1.

For NADPH, the kred1 (OxaD [3]; [11]) was 48 ± 0.80 s^–1, the kred2 (OxaD [3]; [12]) was 0.39 ± 0.01 s^–1 and the “kred1/KD(app)” value (OxaD [3]; OxaD, 10 μM roquefortine C) was 9.0 × 10^4 ± 2.0 × 10^3 M^–1·s^–1. For the same compound, the kred1 (OxaD [3]; OxaD, No roquefortine C) was 0.40 ± 0.10 s^–1, the “increase in KM compared to OxaD” value (OxaD D63A [5]) was 25 fold and the “decrease in kred compared to OxaD” value (OxaD D63A [6]) was about 5 fold. The kred1 (OxaD D63A [4]; [13]) was 9.0 ± 0.20 s^–1, the kred2 (OxaD D63A [4]; [14]) was 0.18 ± 0.01 s^–1 and the “kred1/KD(app)” value (OxaD D63A [4]; D63A, 10 μM roquefortine C) was 7.2 × 10^3 ± 1.4 × 10^3 M^–1·s^–1. It also gave a kred1 (OxaD D63A [4]; D63A, No roquefortine C) of 0.17 ± 0.01 s^–1.

For `C=CC(C)(C)[C@@]12C[C@H]3C(=O)N/C(=C/c4c[nH]cn4)C(=O)N3[C@@H]1Nc1ccccc12` [Roquefortine C], the Kd (oxidized OxaD) is listed as 6.9 µM and ~6.9 µM, the Kd (oxidized D63A) is listed as 6.4 ± 0.2 µM and the Km (OxaD [7]) is listed as 0.071 µM. For the same compound, the kcat (OxaD [7]) was 0.017 s^–1, the “toxic effects in mice” value (mice) was “cytotoxic, immunotoxic, neurotoxic, and lung inflammatory effects” and the “enhancement of kred by presence of roquefortine C” value (OxaD [3]; OxaD, with vs without roquefortine C) was 120 fold. For the same compound, the “increase in kcat compared to OxaD” value (OxaD D63A [5]; oxygen consumption) was about 2 fold, the Km (OxaD D63A [8]; pH 7.6) was 3.5 ± 0.9 µM and the “effect on cytochrome P450s” value [9] was “deactivate cytochrome P450s in the liver and kidneys”. For the same compound, the Km (OxaD [10]) was 3 ± 1 µM, the kcat (OxaD [10]) was 0.93 ± 0.07 s^–1 and the “enhancement of kred in the presence of substrate” value (OxaD D63A [4]; D63A, with vs without substrate) was about 50 fold.

In the case of `C=CC(C)(C)[C@]12C=C(OC)C(=O)N3/C(=C/c4c[nH]cn4)C(=O)N[C@@]31N(OC)c1ccccc12` [oxaline], the antibacterial effects [2] is listed as “antibacterial effects” and the anticancer properties [1] is listed as “anticancer properties”.

For (R)-[4-^2H]-NADPH, the kred1 (OxaD [3]; [11]) was 9.1 ± 0.10 s^–1, the kred2 (OxaD [3]; [12]) was 0.24 ± 0.05 s^–1 and the “^Dkcat (kinetic isotope effect on kcat)” value (OxaD D63A [8]; D63A, synthesized NADPH vs (R)-[4-^2H]-NADPH) was “^Dkcat = 3.40 ± 0.38”. For the same compound, the kred1 (OxaD D63A [4]; [13]) was 2.4 ± 0.08 s^–1, the kred2 (OxaD D63A [4]; [14]) was 0.17 ± 0.01 s^–1 and the “^Dkred (kinetic isotope effect on rate of reduction)” value (OxaD D63A [4]; D63A, 4 mM synthesized NADPH vs 4 mM (R)-[4-^2H]-NADPH) was “^Dkred = 3.60 ± 0.13”.
